Experimental data: US20040157930A1, “Histone deacetylase enzyme-inhibiting derivatives of hydroxamic acid as new cytokine synthesis-inhibiting anti-inflammatory drugs” (priority 2001, published 2004)
pIC50: −log10 of the molar value.

Tests used:
IFNγ = IFNγ synthesis by PBMCs stimulated with IL-12 and IL-18 (ELISA); format: cell-based; conditions: Homo sapiens; PBMC, IL-12 10 ng/ml + IL-18 20 ng/ml, 48 h; read-out: IFNγ (from IL-12 + IL-18) IC50
Procedure: Cytokine IFNγ is produced by the T lymphocytes following their stimulation by pro-inflammatory cytokines, especially IL-12 and IL-18 (Dinarello C. A. and Moldawer L. L. Proinflammatory and anti-inflammatory cytokines in rheumatoid arthritis. A primer for clinicians. 2nd Edition, Amgen Inc., 2000).
At the end, the cells were stimulated for 48 hours in the presence of the compound by simultaneous addition of recombinant IL-12 (10 ng/ml) and recombinant IL-18 (20 ng/ml). The quantity of IFNγ produced was determined with a commercial ELISA assay.

[1] = system: Con A-induced liver injury; test: Con A-induced liver injury, serum ALT; format: in vivo, C57B16 mice; conditions: single dose 50 mg/kg i.p. 1 h before Con A i.v.; vehicle 15.190±2.580
Procedure: After 24 h, serum amino-alanine transferase was measured. Intravenous injection of Con A results in hepatic cell death within 12-24 h with markedly elevated serum levels of hepatic enzymes such as alanine amino transaminase (ALT).

[2] = system: mouse peritoneal macrophages; test: Nitric oxide production from mouse peritoneal macrophages (Griess); format: cell-based, C57BLy6 mice; conditions: TNF-α plus IFN-γ stimulation, 24 h
Procedure: C57BLy6 mice were injected i.p. with 1 ml of sterile thioglycolate broth and killed after 5 days, and macrophages were isolated using instillation of 10 ml of ice-cold PBS into the peritoneal cavity. The cells were centrifuged (350×g) and 3 ml of erythrocyte lysing reagent (PharMingen) was added for 10 min.
Seven milliliters of DMEM containing 5% FCS was added and the cells were centrifuged at 4° C. The cells were resuspended in DMEM at 1 million per ml and 0.5 ml were added to wells of a 48-well plate. […] After 24 h, NO levels in the supernatant were determined using the Griess reagent as described in Am.J.Physiol.Cell Physiol. (2001), 280, C441-C450.

DSS-induced colitis = test: Dextran-induced colitis; format: in vivo, C57BL/6 mice; conditions: for Complete clinical score: 0 (healthy) to 4; for Weight: in g; for Bleeding / Stool consistency as score: score 0-4; for Colon length: post mortem day 10
Procedure: Female, 8 week-old C57BL/6 mice (The Jackson Laboratories, Bar Habor, Me.) weighing 20-22 g were used in this study. The animals were housed in rooms at a controlled temperature and a 12 h day/night rhythm. They were fed standard mice chow pellets ad libitum, had free access to tap water supplied in bottles, and were acclimatized to the conditions at least seven days before they were used in experiments. Mice were killed by cervical dislocation under isoflurane anesthesia (Fort Dodge, Iowa City, Iowa).
; molecular weight 40 kDa; ICN, Aurora, Ohio) dissolved in sterile, distilled water ad libitum from day one to five followed by a five day observation period. […]. Body weights, occult blood or the presence of gross blood per rectum, and stool consistency were determined daily. Two investigators blinded to the protocol assessed the clinical score (table 1). Weight loss <1% compared to day 1 was counted as 0 points, weight loss of 1 to <5% as 1 point, 5 to <9.9% as 2 points, 10 to 20% as 3 points and more than 20% as 4 points. […] Bleeding was scored 0 points for no blood in hemoccult, 2 points for positive hemoccult, and 4 points for gross bleeding. These scores (body weight, stool consistency, rectal bleeding) were added and divided by 3 resulting in a total clinical score ranging from 0 (healthy) to 4 (maximal activity of colitis).
Post mortem (on day 10), the entire colon was removed from the caecum to the anus and the colon length was measured as an indirect marker of inflammation.

[3] = DSS + SAHA 10 mg/kg p.o. daily, day 1
[4] = DSS + SAHA 10 mg/kg p.o. daily, day 2
[5] = DSS + SAHA 10 mg/kg p.o. daily, day 3
[6] = DSS + SAHA 10 mg/kg p.o. daily, day 4
[7] = DSS + SAHA 10 mg/kg p.o. daily, day 5
[8] = DSS + SAHA 10 mg/kg p.o. daily, day 6
[9] = DSS + SAHA 10 mg/kg p.o. daily, day 7
[10] = DSS + SAHA 10 mg/kg p.o. daily, day 8
[11] = DSS + SAHA 10 mg/kg p.o. daily, day 9
[12] = DSS + SAHA 10 mg/kg p.o. daily, day 10
[13] = SAHA 10 mg/kg p.o. daily without DSS, day 1
[14] = SAHA 10 mg/kg p.o. daily without DSS, day 2
[15] = SAHA 10 mg/kg p.o. daily without DSS, day 3
[16] = SAHA 10 mg/kg p.o. daily without DSS, day 4
[17] = SAHA 10 mg/kg p.o. daily without DSS, day 5
[18] = SAHA 10 mg/kg p.o. daily without DSS, day 6
[19] = SAHA 10 mg/kg p.o. daily without DSS, day 7
[20] = SAHA 10 mg/kg p.o. daily without DSS, day 8
[21] = SAHA 10 mg/kg p.o. daily without DSS, day 9
[22] = SAHA 10 mg/kg p.o. daily without DSS, day 10

SMILES: O=C(CCCCCCC(=O)Nc1ccccc1)NO [SAHA, suberoylanilide hydroxamic acid]
- pIC50 (IFNγ): 6.13
- 24-h level of serum ALT (mean±SE) [1]: 8.144±2.091 units/liter
- reduction of NO production ([2]; 200 nM): 50%
- reduction of NO production ([2]; 400 nM): 80%
- reduction of NO production ([2]; 800 nM): 85%
- Complete clinical score (DSS-induced colitis; [3]): 0.0 ± 0.0
- Weight (DSS-induced colitis; [3]): 19.1 ± 0.2
- Bleeding (DSS-induced colitis; [3]): 0.0 ± 0.0
- Stool consistency as score (DSS-induced colitis; [3]): 0.0 ± 0.0
- Complete clinical score (DSS-induced colitis; [4]): 0.0 ± 0.0
- Weight (DSS-induced colitis; [4]): 18.8 ± 0.2
- Bleeding (DSS-induced colitis; [4]): 0.0 ± 0.0
- Stool consistency as score (DSS-induced colitis; [4]): 0.0 ± 0.0
- Complete clinical score (DSS-induced colitis; [5]): 0.1 ± 0.1
- Weight (DSS-induced colitis; [5]): 19.1 ± 0.3
- Bleeding (DSS-induced colitis; [5]): 0.0 ± 0.0
- Stool consistency as score (DSS-induced colitis; [5]): 0.0 ± 0.0
- Complete clinical score (DSS-induced colitis; [6]): 0.2 ± 0.1
- Weight (DSS-induced colitis; [6]): 18.4 ± 0.4
- Bleeding (DSS-induced colitis; [6]): 0.0 ± 0.0
- Stool consistency as score (DSS-induced colitis; [6]): 0.0 ± 0.0
- Complete clinical score (DSS-induced colitis; [7]): 0.7 + 0.3
- Weight (DSS-induced colitis; [7]): 18.4 ± 0.4
- Bleeding (DSS-induced colitis; [7]): 1.2 ± 0.4
- Stool consistency as score (DSS-induced colitis; [7]): 0.8 ± 0.4
- Complete clinical score (DSS-induced colitis; [8]): 1.3 ± 0.3
- Weight (DSS-induced colitis; [8]): 18.7 ± 0.3
- Bleeding (DSS-induced colitis; [8]): 2.4 ± 0.4
- Stool consistency as score (DSS-induced colitis; [8]): 0.8 ± 0.4
- Complete clinical score (DSS-induced colitis; [9]): 1.5 ± 0.1
- Weight (DSS-induced colitis; [9]): 18.0 ± 0.4
- Bleeding (DSS-induced colitis; [9]): 2.0 ± 0.0
- Stool consistency as score (DSS-induced colitis; [9]): 2.0 ± 0.0
- Complete clinical score (DSS-induced colitis; [10]): 1.9 ± 0.1
- Weight (DSS-induced colitis; [10]): 16.9 ± 0.3
- Bleeding (DSS-induced colitis; [10]): 1.6 ± 0.4
- Stool consistency as score (DSS-induced colitis; [10]): 2.0 ± 0.0
- Complete clinical score (DSS-induced colitis; [11]): 1.5 ± 0.4
- Weight (DSS-induced colitis; [11]): 16.6 ± 0.4
- Bleeding (DSS-induced colitis; [11]): 1.2 ± 0.4
- Stool consistency as score (DSS-induced colitis; [11]): 1.2 ± 0.4
- Complete clinical score (DSS-induced colitis; [12]): 1.3 ± 0.4
- Weight (DSS-induced colitis; [12]): 16.6 ± 0.4
- Bleeding (DSS-induced colitis; [12]): 0.8 ± 0.4
- Stool consistency as score (DSS-induced colitis; [12]): 1.2 ± 0.4
- Colon length (DSS-induced colitis; DSS + SAHA 10 mg/kg p.o. daily, DSS + water 7.6 ± 0.2): 9.2 ± 0.2 cm
- Complete clinical score (DSS-induced colitis; [13]): 0.0 ± 0.0
- Weight (DSS-induced colitis; [13]): 18.9 ± 0.3
- Bleeding (DSS-induced colitis; [13]): 0.0 ± 0.0
- Stool consistency as score (DSS-induced colitis; [13]): 0.0 ± 0.0
- Complete clinical score (DSS-induced colitis; [14]): 0.0 ± 0.0
- Weight (DSS-induced colitis; [14]): 18.8 ± 0.4
- Bleeding (DSS-induced colitis; [14]): 0.0 ± 0.0
- Stool consistency as score (DSS-induced colitis; [14]): 0.0 ± 0.0
- Complete clinical score (DSS-induced colitis; [15]): 0.0 ± 0.0
- Weight (DSS-induced colitis; [15]): 18.9 ± 0.2
- Bleeding (DSS-induced colitis; [15]): 0.0 ± 0.0
- Stool consistency as score (DSS-induced colitis; [15]): 0.0 ± 0.0
- Complete clinical score (DSS-induced colitis; [16]): 0.0 ± 0.0
- Weight (DSS-induced colitis; [16]): 18.9 ± 0.3
- Bleeding (DSS-induced colitis; [16]): 0.0 ± 0.0
- Stool consistency as score (DSS-induced colitis; [16]): 0.0 ± 0.0
- Complete clinical score (DSS-induced colitis; [17]): 0.0 ± 0.0
- Weight (DSS-induced colitis; [17]): 19.0 ± 0.1
- Bleeding (DSS-induced colitis; [17]): 0.0 ± 0.0
- Stool consistency as score (DSS-induced colitis; [17]): 0.0 ± 0.0
- Complete clinical score (DSS-induced colitis; [18]): 0.0 ± 0.0
- Weight (DSS-induced colitis; [18]): 19.0 ± 0.3
- Bleeding (DSS-induced colitis; [18]): 0.0 ± 0.0
- Stool consistency as score (DSS-induced colitis; [18]): 0.0 ± 0.0
- Complete clinical score (DSS-induced colitis; [19]): 0.0 ± 0.0
- Weight (DSS-induced colitis; [19]): 18.9 ± 0.1
- Bleeding (DSS-induced colitis; [19]): 0.0 ± 0.0
- Stool consistency as score (DSS-induced colitis; [19]): 0.0 ± 0.0
- Complete clinical score (DSS-induced colitis; [20]): 0.0 ± 0.0
- Weight (DSS-induced colitis; [20]): 19.0 ± 0.3
- Bleeding (DSS-induced colitis; [20]): 0.0 ± 0.0
- Stool consistency as score (DSS-induced colitis; [20]): 0.0 ± 0.0
- Complete clinical score (DSS-induced colitis; [21]): 0.0 ± 0.1
- Weight (DSS-induced colitis; [21]): 19.1 ± 0.1
- Bleeding (DSS-induced colitis; [21]): 0.0 ± 0.0
- Stool consistency as score (DSS-induced colitis; [21]): 0.0 ± 0.0
- Complete clinical score (DSS-induced colitis; [22]): 0.0 ± 0.0
- Weight (DSS-induced colitis; [22]): 19.1 ± 0.2
- Bleeding (DSS-induced colitis; [22]): 0.0 ± 0.0
- Stool consistency as score (DSS-induced colitis; [22]): 0.0 ± 0.0
- Colon length (DSS-induced colitis; SAHA 10 mg/kg p.o. daily without DSS, water 10.5 ± 0.3): 10.1 ± 0.2 cm
- effect on dextran-induced colitis (overall conclusion) (DSS-induced colitis; SAHA 10 mg/kg p.o. daily, days 1 to 10): effectively counteracts dextran-induced colitis
